Paper PMC11765156 (International Journal of Molecular Sciences, 2025)
≈ marks a conversion by molar mass, not a printed value.

Tests used:
Balanus amphitrite = test: Anti-settlement assay with barnacle cyprid larvae (settlement inhibition and mortality, 48 h); format: in vivo; settings: for EC50: Amphibalanus amphitrite, read-out: EC50 (inhibition of barnacle larval settlement); for LC50/EC50: Balanus amphitrite, ratio >15 indicating low toxicity
Description: (§1) Compounds dissolved in DMSO were sequentially administered to the wells, starting with a concentration of 25 µg/mL and proceeding with serial half-logarithmic dilutions. The volume of the compound in each well was maintained at […], with seawater as the blank control, DMSO as the negative control, and SeaNine 211 serving as the positive control. Utilizing a stereo microscope, a 1 mL micropipette was employed to introduce 995 μL of seawater and between 21 and 25 cyprid larvae into each well of a 24-well plate. Subsequently, the plates were incubated in a darkened, temperature-controlled environment for 48 h. […] This observation facilitated the calculation of mortality and settlement rates of the barnacle cyprids, crucial for assessing the antifouling properties of the compounds. The determination of EC50 values for the inhibition of barnacle larval attachment and LC50 values for larval mortality offered an evaluation of the compounds’ efficacy in deterring barnacle larval adherence and their associated toxicity.

[1] = as above; format: in vivo, Balanus amphitrite; settings: in vivo, other: larvae immersed in seawater containing the compound; Balanus amphitrite cyprid larvae, 48 h incubation; read-out: LC50 (larval mortality)
Description: as §1

[2] = system: Balanus amphitrite cyprid larvae; test: Rescue (resuscitation) assay of Balanus amphitrite cyprid larvae; format: in vivo; settings: 1 μg/mL for 24 h, rinsed, settlement observed after 48 h
[3] = Zebrafish embryo toxicity assay; format: in vivo; settings: in vivo, other: embryos immersed in compound solution in wells, 48 h exposure, read-out: LC50 at 48 h post-fertilization
Description: (§2) The zebrafish embryo toxicity assay was conducted according to the method described by Huang et al., with slight modifications. Test compounds were dissolved in 0.5% DMSO to prepare a concentration series (0.1, 1, 5, 25, 50 μg/mL), which was then dispensed into 24-well plates. Fifteen cleavage-stage embryos were added to each well. The plates were incubated at 28 °C, and embryonic development was evaluated under a stereomicroscope after 48 h of exposure.

zebrafish embryos = test: Zebrafish embryo toxicity assay; format: in vivo; settings: for phenotype of zebrafish embryos versus control: 48 h
Description: as §2

[4] = Balanus amphitrite cyprid larvae, 48 h incubation

| Molecule | LC50 at 48 h [1] [µg/mL] | EC50 (Balanus amphitrite; [4]) [µg/mL] | LC50/EC50 (Balanus amphitrite) | further results |
| --- | --- | --- | --- | --- |
| brusatol [B1, reference compound] | – | – | – | EC50 (inhibition of barnacle larval settlement) (Balanus amphitrite; [4]): 2.7826 ± 0.6874 µg/mL |
| COC(=O)C12OCC34C(CC5C(C)=C(O)C(=O)CC5(C)C3C(O)C1O)OC(=O)C(OC(=O)c1ccc(C(C)=O)s1)C24 (stereo not shown) [Compound 14, 15-O-(3′-Acetyl-Thiophen-6′-Carbonyl)-Bruceolide] | 7.92 ± 0.243 (≈ 13.4 µM) | 2.15 ± 0.727 (≈ 3.63 µM) | 3.6926 | – |
| COC(=O)C12OCC34C(CC5C(C)=C(O)C(=O)CC5(C)C3C(O)C1O)OC(=O)C(OC(=O)c1ccc(Cl)nc1)C24 (stereo not shown) [Compound 6] | 5.77 ± 2.54 (≈ 9.98 µM) | 0.34 ± 0.104 (≈ 0.589 µM) | 16.9633 | recovery rate [2]: high recovery rates; LC50 at 48 h [3]: 8.18 µg/mL (≈ 14.2 µM); phenotype of zebrafish embryos versus control (zebrafish embryos): no significant phenotypic differences |
| COC(=O)C12OCC34C(CC5C(C)=C(O)C(=O)CC5(C)C3C(O)C1O)OC(=O)C(OC(=O)CCCCl)C24 (stereo not shown) [Compound 3, 15-O-(4′-Chlorobutanoyl)-Bruceolide] | 6.24 ± 2.62 (≈ 11.5 µM) | 0.147 ± 0.0332 (≈ 0.272 µM) | 42.2922 | recovery rate [2]: high recovery rates; resuscitation rate [2]: 71.11%; LC50 at 48 h [3]: 15.8 µg/mL (≈ 29 µM); phenotype of zebrafish embryos versus control (zebrafish embryos): no significant phenotypic differences |
| COC(=O)C12OCC34C(CC5C(C)=C(O)C(=O)CC5(C)C3C(O)C1O)OC(=O)C(OC(=O)Cc1cccc(C#N)c1)C24 (stereo not shown) [Compound 13, 15-O-(5′-Cyano-Phenyl-3′-Acetyl)-Bruceolide] | 6.61 ± 0.112 (≈ 11.4 µM) | 1.84 ± 0.179 (≈ 3.17 µM) | 3.5854 | – |
| COC(=O)C12OCC34C(CC5C(C)=C(O)C(=O)CC5(C)C3C(O)C1O)OC(=O)C(OC(=O)CCC#N)C24 (stereo not shown) [Compound 12, 15-O-(3′-Cyanopropanoyl)-Bruceolide] | 2.8 ± 0.122 (≈ 5.39 µM) | 1.39 ± 0.135 (≈ 2.67 µM) | 2.0219 | – |
| COC(=O)C12OCC34C(CC5C(C)=C(O)C(=O)CC5(C)C3C(O)C1O)OC(=O)C(OC(=O)Cc1cccc(F)c1)C24 (stereo not shown) [Compound 8, 15-O-(5′-Fluorophenylacetyl)-Bruceolide] | 5.91 ± 1.03 (≈ 10.3 µM) | 1.12 ± 0.103 (≈ 1.95 µM) | 5.2723 | – |
| COC(=O)C12OCC34C(CC5C(C)=C(O)C(=O)CC5(C)C3C(O)C1O)OC(=O)C(OC(=O)c1ccc(Cl)cc1)C24 (stereo not shown) [Compound 4] | 0.741 ± 0.082 (≈ 1.28 µM) | 0.353 ± 0.101 (≈ 0.611 µM) | 2.1018 | – |
| CCCCCCCCn1sc(Cl)c(Cl)c1=O [SeaNine 211, reference compound] | – | – | – | EC50 (inhibition of barnacle larval settlement) (Balanus amphitrite; [4]): 1.9363 ± 0.4128 µg/mL; LC50 (larval mortality) (Balanus amphitrite; [4]): 33.9306 ± 2.0625 µg/mL (≈ 120 µM); LC50 at 48 h post-fertilization (zebrafish embryos; 48 h exposure): 7.2236 µg/mL (≈ 25.6 µM) |
| COC(=O)C12OCC34C(CC5C(C)=C(O)C(=O)CC5(C)C3C(O)C1O)OC(=O)C(OC(=O)CCCCBr)C24 (stereo not shown) [Compound 1, 15-O-(5′-Bromovaleryl)-Bruceolide] | 0.842 ± 0.112 (≈ 1.4 µM) | 0.523 ± 0.123 (≈ 0.87 µM) | – | – |
| COC(=O)C12OCC34C(CC5C(C)=C(O)C(=O)CC5(C)C3C(O)C1O)OC(=O)C(OC(=O)c1ccc(Cl)s1)C24 (stereo not shown) [Compound 5] | 6.14 ± 0.173 (≈ 10.5 µM) | 2.02 ± 0.237 (≈ 3.47 µM) | 3.0330 | – |
| COC(=O)C12OCC34C(CC5C(C)=C(O)C(=O)CC5(C)C3C(O)C1O)OC(=O)C(OC(=O)CCCCCl)C24 (stereo not shown) [Compound 2, 15-O-(5′-Chlorovaleryl)-Bruceolide] | 1.12 ± 0.144 (≈ 2.02 µM) | 0.417 ± 0.185 (≈ 0.748 µM) | 2.6978 | – |
